Assay results from paper PMC9293227 (Clinical Pharmacology in Drug Development, 2021).
Read-outs that look alike come from different tables or passages of the source. Each block holds one molecule with its values, some of them ahead of it.

How the values were obtained:
[1] = no reference given, cited from earlier work
[2] = test system: cytochrome P450 enzymes or uridine 5’‐diphospho‐glucuronosyltransferases; details: in vitro; cited from earlier work
JAK1 = details: human whole blood assay; cited from earlier work
[3] = cited from earlier work
[4] = for increase in Cmax with filgotinib coadministration relative to statin alone: pravastatin 40 mg / rosuvastatin 10 mg, filgotinib 200 mg once daily; for AUCinf (molar ratio of 2‐hydroxy‐atorvastatin to atorvastatin) / Cmax (molar ratio of 2‐hydroxy‐atorvastatin to atorvastatin): mean (%CV)
Safety assessment = format: in vivo, human (healthy adult participants); details: by treatment arm
[5] = clinical trials and postmarketing surveillance; cited from earlier work
[6] = both, human, plasma, oral, 40 mg
[7] = 2-hydroxy-atorvastatin after atorvastatin 40 mg alone, n = 25, median (Q1-Q3)
[8] = 2-hydroxy-atorvastatin, atorvastatin + filgotinib vs atorvastatin alone
[9] = atorvastatin 40 mg + filgotinib 200 mg once daily, n = 26
[10] = atorvastatin 40 mg alone, n = 25
[11] = atorvastatin + filgotinib vs atorvastatin alone
[12] = both, human, plasma, oral, 10 mg
[13] = rosuvastatin + filgotinib vs rosuvastatin alone

AUC(0-inf) [4, 6]: 201 ng·h/mL
AUC(0-t) [4, 6]: 200 ng·h/mL
tmax [4, 6]: 1 h
half-life ([4]; both, human, plasma, oral, t1/2, pravastatin 40 mg (cocktail) + filgotinib 200 mg once daily, n = 26, mean (standard deviation)): 6.57 h
half-life ([4]; both, human, plasma, oral, t1/2, pravastatin 40 mg (cocktail) + filgotinib 200 mg once daily, n = 26, median (Q1-Q3)): 5.6 h
increase in Cmax with filgotinib coadministration relative to statin alone [4]: 25%
AUClast GLSM Ratio (90% CI) ([4]; pravastatin + filgotinib vs pravastatin alone): 1.22 (1.05‐1.41)
Compound: CC[C@H](C)C(=O)O[C@H]1C[C@H](O)C=C2C=C[C@H](C)[C@H](CC[C@@H](O)C[C@@H](O)CC(=O)O)[C@H]21 [Pravastatin]

t1/2 [4, 7]: 9.1 (7.1‐10.9) h
tmax [4, 7]: 2.0 (1.5‐4.1) h
AUCinf GLSM Ratio (90% CI) [4, 8]: 1.11 (1.02‐1.22)
AUClast GLSM Ratio (90% CI) [4, 8]: 1.12 (1.02‐1.23)
Cmax GLSM Ratio (90% CI) [4, 8]: 0.98 (0.81‐1.19)
AUCinf (molar ratio of 2‐hydroxy‐atorvastatin to atorvastatin) [4, 9]: 1.6 (26.3)
Cmax (molar ratio of 2‐hydroxy‐atorvastatin to atorvastatin) [4, 9]: 0.8 (29.3)
AUCinf (molar ratio of 2‐hydroxy‐atorvastatin to atorvastatin) [4, 10]: 1.3 (35.1)
Cmax (molar ratio of 2‐hydroxy‐atorvastatin to atorvastatin) [4, 10]: 0.7 (43.9)
AUCinf (molar ratio of 2‐hydroxy‐atorvastatin to atorvastatin) GLSM Ratio (90% CI) [4, 11]: 1.22 (1.15‐1.29)
Cmax (molar ratio of 2‐hydroxy‐atorvastatin to atorvastatin) GLSM Ratio (90% CI) [4, 11]: 1.19 (1.06‐1.33)
Compound: CC(C)c1c(C(=O)Nc2ccccc2O)c(-c2ccccc2)c(-c2ccc(F)cc2)n1CCC(O)CC(O)CC(=O)O (stereo not shown) [2‐Hydroxy‐Atorvastatin, 2‐hydroxy‐atorvastatin]

AUC(0-inf) [4, 12]: 66 ng·h/mL
Cmax [4, 12]: 7.5 ng/mL
half-life ([4]; both, human, plasma, oral, t1/2, rosuvastatin 10 mg (cocktail) + filgotinib 200 mg once daily, n = 26, median (Q1-Q3)): 15.4 h
increase in Cmax with filgotinib coadministration relative to statin alone [4]: 68%
tmax ([4]; rosuvastatin 10 mg alone (cocktail), n = 25, median (Q1-Q3)): 3.0 (2.0‐4.0) h
AUCinf GLSM Ratio (90% CI) [4, 13]: 1.42 (1.30‐1.57)
AUClast GLSM Ratio (90% CI) [4, 13]: 1.46 (1.32‐1.62)
Cmax GLSM Ratio (90% CI) [4, 13]: 1.68 (1.43‐1.97)
Compound: CC(C)c1nc(N(C)S(C)(=O)=O)nc(-c2ccc(F)cc2)c1/C=C/[C@@H](O)C[C@@H](O)CC(=O)O [Rosuvastatin]
myopathy related to rosuvastatin, patients [5]: ≤ 0.03%

Further lines, the molecule ahead of its results:

Compound: Nc1nc2cccc(-c3ccc(CN4CCS(=O)(=O)CC4)cc3)n2n1 [GS‐829845]
time to achieve steady-state plasma concentrations ([1]; multiple once-daily dosing of filgotinib): ≈ 4 days
accumulation in plasma following multiple once-daily dosing of filgotinib [1]: approximately 2 fold
interaction with cytochrome P450 enzymes or UGTs [2]: do not interact
reduced potency relative to filgotinib (JAK1): ≈ 10 fold
effect on QT interval [3]: not affect QT interval

Compound: O=C(Nc1nc2cccc(-c3ccc(CN4CCS(=O)(=O)CC4)cc3)n2n1)C1CC1 [Filgotinib]
accumulation in plasma following multiple once-daily dosing of filgotinib [1]: does not accumulate
interaction with cytochrome P450 enzymes or UGTs [2]: do not interact
effect on QT interval [3]: not affect QT interval
participants with treatment‐emergent AE related to study drug, n (%) (Safety assessment): 8 (30.8%)
headache, n [%] (Safety assessment; all mild or moderate): 5 [19.2%]
nausea, n [%] (Safety assessment; all mild or moderate): 3 [11.5%]

Compound: CC(C)c1c(C(=O)Nc2ccccc2)c(-c2ccccc2)c(-c2ccc(F)cc2)n1CC[C@@H](O)C[C@@H](O)CC(=O)O [Atorvastatin]
participants with treatment‐emergent AE related to study drug, n (%) (Safety assessment): 3 (11.5%)
headache, n [%] (Safety assessment; all mild or moderate): 2 [7.7%]
